From patent US20230390315A1, “COMPOSITIONS AND METHODS FOR TREATING ISCHEMIC CONDITIONS” (The Regents of the University of California, priority 2020, published 2023) come the findings set out here.

One series has as its system BCEC. Briefly: BCEC transwell migration assay. The conditions noted are these: ManN at 40 uM. In kind it is cell-based, bovine. Here is the method:
HUVECs (passage 6-8) were cultured and serum-starved as described in “Western Blots”. Ten thousand cells in 150 μl of EBM-2 medium were then added to the upper chamber of 8 μm pore size cell culture inserts (Falcon) coated with 0.1% gelatin. The lower compartment was filled with 600 μl EBM-2 medium containing various agents. The plates were incubated at 37° C. to allow migration. After 4 hrs, cells were fixed with 4% PFA for 20 min and then stained with crystal violet (Sigma-Aldrich) for 20 min at RT. Migrated cells on the bottom side of the insert membrane were quantified by counting whole area of the insert at 40× magnification. The experiments were carried out in triplicate and repeated three times. BCEC migration was set up similarly, except that wells were coated with FN, cells were suspended in 1% serum media and migration time was 18-24 hrs.

The subject of a further series is ARPE-19 RPE cells. The series is described as follows: Human RPE cell proliferation assay. In kind it is cell-based. Here is the method:
Proliferation assays with fibroblasts were done in low-glucose DMEM containing 1% FBS, with or without 10 ng/ml bFGF, or 100 ng/ml human EGF and the assay was ended at day 3. ARPE-19 cells were gently lifted with 0.025% trypsin and plated in RtEGM media (Clonetics) containing 2% FBS, L-glutamine, human bFGF and GA-1000. Once cells were attached to plates, serum-free RtEGM media was used to maintain the cultures. For proliferation assays, 1500 human RPE cells were plated into 96-well plates in low-glucose DMEM containing 1% FBS. A673, U87MG, Calu6 and AML12 cells were grown until confluent and were then harvested and re-suspended in appropriate assay media. For proliferation assays, cells were plated at the density of 1000-2000 cells/well in low-glucose DMEM containing 5% FBS or otherwise stated. Bovine pituitary cells (pituitary folliculostellate cells) were isolated as previously described. For proliferation assays with human epidermal keratinocytes, human DMVECs and human dermal fibroblast cells, 1000 cells/well were plated in low-glucose DMEM containing 1% FBS with or without various growth factors. The assay was ended at day 3 for bovine pituitary cells and at day 4 for all the other cell types. […] Four days later, tumor cell growth was measured by the MTS assay (Promega, Madison, WI), a colorimetric assay that measures metabolic activity of viable cells. […]

Series [1] has as its system protein glycosylation in BCECs. The series is described as follows: N-glycan, monosaccharide, sialic acid and O-glycan analysis of BCECs. In kind it is cell-based, bovine. The protocol: As soon as BCECs reached about 80% confluency, they were washed twice with phosphate buffered saline (PBS, Sigma) and harvested by scraping. The cells were pelleted by centrifugation at 300 g for 3 mins and washed once with cold PBS. Cells were homogenized and total protein was measured. All subsequent analysis was based on known protein amount.
N-linked glycans were removed from glycoprotein samples using PNGase-F kit (New England BioLabs, P0705S). Briefly, 300 μg of protein sample was reconstituted in 180 μl UltraPure water. 20 μl of 10× denaturing buffer was added and boiled using 100° C. water bath for 14 mins. Samples were cooled down to room temperature and centrifuged at 2700 g for 1 min. Subsequently, 50 μl 10×NP-40 was added and samples were kept at room temperature for 30 mins with vortexing at 5 min interval, followed by adding 25 μL of 10×reaction buffer and mixing thoroughly. 5 μl PNGaseF (2500 U) was then added to the samples and mixed gently. Samples were incubated at 37° C. for 16 hrs. Released N-glycans were purified using solid phase extraction method. Briefly, N-glycans were purified by passing the reaction mixture sequentially over pre-conditioned Sep-Pak C18 1 cc cartridge (Waters) and HyperSep PGC ([…]) cartridge (25 mg, 1 ml Thermo Scientific). The cartridge was washed with 4 ml of water and the PGC alone was washed with additional 1 ml of water. N-glycans bound to PGC were eluted using 30% acetonitrile containing 0.1% TFA in water. Finally, purified N-glycans were lyophilized and labeled with 2-AB. Briefly, samples were dissolved in 10 μl solution of 0.44 M 2-AB (2-Amino benzamide) in 35% acetic acid in DMSO containing 1M sodium cyanoborohydride. The samples were incubated at 65° C. for 2.5 hrs. The 2-AB labeled glycans were purified using GlycoClean S cartridge (GLYKO) following their glycan clean-up protocol. Excess reagent was removed from the samples using Glycoclean S-cartridge (Prozyme) and labelled glycans were dried using SpeedVac and stored at −20° C. Profiling of 2-AB labeled glycans was obtained using Dionex CarboPac PA1 (4×250 mm) anion exchange column along with a guard column (4×50 mm) at flow rate of 1 ml/min. Glycans were separated in 100 mM sodium hydroxide with a sodium acetate gradient of 0-250 mM in 0-75 minutes. The data was collected using the Dionex ICS-3000 HPLC system with Ultimate 3000 fluorescence detector (Dionex) set at λex 330 nm at tem 420 nm with sensitivity 7. The data was processed using Chromeleon software (Thermo Scientific).
Monosaccharide composition analysis was done using HPAEC-PAD (Thermo-Dionex ICS3000) and nmole amount of each monosaccharide present in 25 μg of protein was calculated. Samples were hydrolyzed using 2 N trifluoroacetic acid (TFA) at 100° C. for 4 hrs. Followed by removal of acid using dry nitrogen flush. To ensure complete removal of acid, samples were co-evaporated twice with 100 μl of 50% isopropyl alcohol (IPA). Finally, the samples were dissolved in Milli-Q water and injected on HPAEC-PAD. Monosaccharide profile was done using Dionex CarboPac™ PA1 column (250 mm×4 mm; with 50 mm×4 mm guard column). […] All neutral and amino sugars were identified and quantified by comparing with authentic monosaccharide standard mixture consisting of L-fucose, D-galactosamine, D-glucosamine, D-galactose, D-glucose and D-mannose.
Mild acid hydrolysis was used to release sialic acid. […] Known amount of standard Neu5Ac was used to quantify amount of sialic acid in samples. […]

Turning to `N[C@H](C=O)[C@@H](O)[C@H](O)[C@H](O)CO` [ManN, 2-Amino-2-deoxy-D-mannose], in the series on BCEC, the “additivity with VEGF in promoting BCEC migration” value was “significant additivity with VEGF”. For the same compound, the “cellular toxicity, sensitivity among cell types” value in the series with ARPE-19 RPE cells (5 mM level of ManN) was “least sensitive”. Besides, the “proliferation of human RPEs” value in the series on ARPE-19 RPE cells (alone or in combination with growth factors) is “no increases in proliferation”. In series [1], the “fucose (8 hours), mannose (12 hours), galactose (24 hours) and Neu5Ac (8 and 24 hours) content vs untreated control” value is given as “significant decrease”; the “incorporation of ManN in N-glycans” value is recorded as “No incorporation of ManN was detected”. For the same compound, in series [1] (40 uM ManN), the “Man-5 and Man-7 content” value is recorded as “significant early phase accumulation”; the “Man-6, Man-8 and Man-9 in total oligomannose N-glycan content vs untreated control” value is on record as “significant time-dependent reduction”. Moreover, the O-glycosylation result in series [1] (40 uM ManN, MALDI-Tof) is on record as “overall decrease in O-glycosylation”.
